The record followed here is patent US20200378993A1, “MEDICAL USES OF APOLIPOPROTEIN A AND ACTIVATORS THEREOF” (FUNDACIÓN IMDEA ALIMENTACIÓN, priority 2017, published 2020).

Type in all cases: cell-based, human
The subject of assay [1] is ABCA1 cholesterol transporter. As to the kind of experiment: ABCA1 messenger RNA and protein level after treatment. Conditions: treatment with Rvx-208 (30 μM); Western blot. As to the method:
FIG. 6. A) Proliferation curve in a viability assay carried out by means of XCELLigence technology. The results for the stable cell line overexpressing ABCA1 in the absence and presence of ApoA1 are shown. The cells were treated for 72 hours before the experiment with 40 μg/ml of ApoA1 and with a concentration of 20 μg/ml during acquisition. B) Migration and invasion assays. The method followed was the same as the one described in FIG. 1. (**p-value=0.003; ****p-value<0.0001). C) ABCA1 messenger RNA level (left panel) and ABCA1 protein level (right panel) in the presence and absence of treatment with ApoA1. Results are shown both for the control cells and for those cells overexpressing the transporter.
(§1) FIG. 7. A) Proliferation curve in a viability assay carried out by means of XCELLigence technology. Growth of DLD1 cells treated with DMSO as the drug carrier and with Rvx-208 (30 μM). The significant differences existing in the slope of the graph, and therefore in the growth dynamics of the treated cells are shown in the right panel (****p-value<0.0001). B) Migration and invasion assays. The method followed was the same as the one described in FIG. 2 (*p-value=0.0407; ****p-value<0.0001). C) Expression levels of proteins E-cadherin and Vimentin in the presence and absence of Rvx-208. Analysis performed by means of quantitative PCR. The relative expression levels normalized with respect to the untreated control are shown. D) ABCA1, ApoA1, caveolin-1, and α-tubulin immunodetection by means of Western blot. α-tubulin acts as load control. The results of the cells treated with Rvx-208 (30 μM) or with the DMSO carrier are shown. E) Cholesterol flux in cells treated with Rvx-208.
Cell viability and proliferation assays were carried out by means of XCELLigence technology (ACEA Biosciences, Inc.) following the manufacturer's indications. Migration and invasion assays were carried out in Corning® BioCoat™ Control plates (#354578) and Corning® BioCoat™ Matrigel plates (#354480), respectively, following the manufacturer's indications. For the rescue assays, the cells were treated for 72 hours with 30 μM apabetalone (RVX-208; Biovision). Antibodies: ABCA1 (Ab18180, Abcam. 1:500); caveolin-1 (Ab2910, Abcam. 1:1000); α-tubulin (T9026, Sigma 1:1000). The DLD1 cells correspond to a human colorectal cancer-derived adherent epithelial cell line (ATCC® CCL-221™). […]
The inventors were able to confirm said results based on the treatment of DLD1 cells expressing ABCA1 with RVX-208 under the conditions already described in detail in Example 3. […] The levels of caveolin-1, a protein whose increased levels have been associated with increases in cell migration and invasion, were also analyzed in this experiment.
A general note: In western blotting, separated proteins are transferred to a membrane and probed.

In assay [2] the test system is apolipoprotein A1. As to the kind of experiment: ApoA1 immunodetection by Western blot. The note with it: RVX-208 (30 μM) versus DMSO carrier. As to the method: as §1, with “with Rvx-208. The inventors were able to confirm said results based on the treatment of DLD1 cells expressing ABCA1 with RVX-208 under the conditions already described in detail in Example 3. […] The levels of caveolin-1, a protein whose increased levels have been associated with increases in cell migration and invasion, were also analyzed in this experiment.” for “with Rvx-208.”

For assay [3], the system named is cholesterol flux. As to the kind of experiment: Cholesterol flux in treated cells. Conditions: treatment with Rvx-208. As for the experimental part:
as §1, with “with Rvx-208. The inventors were able to confirm said results based on the treatment of DLD1 cells expressing ABCA1 with RVX-208 under the conditions already described in detail in Example 3. […] The levels of caveolin-1, a protein whose increased levels have been associated with increases in cell migration and invasion, were also analyzed in this experiment.” for “with Rvx-208.”

Assay [4] relates to DLD1 cells. As to the kind of experiment: Migration assay (Corning BioCoat Control plates). Conditions: RVX-208 30 μm 72 hours then 15 μM. As to the method: Cell viability and proliferation assays were carried out by means of XCELLigence technology (ACEA Biosciences, Inc.) following the manufacturer's indications. Migration and invasion assays were carried out in Corning® BioCoat™ Control plates (#354578) and Corning® BioCoat™ Matrigel plates (#354480), respectively, following the manufacturer's indications. For the rescue assays, the cells were treated for 72 hours with 30 μM apabetalone (RVX-208; Biovision). Antibodies: ABCA1 (Ab18180, Abcam. 1:500); caveolin-1 (Ab2910, Abcam. 1:1000); α-tubulin (T9026, Sigma 1:1000). The DLD1 cells correspond to a human colorectal cancer-derived adherent epithelial cell line (ATCC® CCL-221™). The stable cell lines capable of overexpressing ABCA1 were obtained by means of transduction with genetically modified lentivirus.
Following the same treatment regimen, the inventors carried out migration and invasion assays.
The same assays were repeated by replacing ApoA1 with a treatment with RVX-208. In this case, DLD1 cells were pre-treated for 72 hours before the start of the experiment with RVX-208 at a concentration of 30 μm and were subjected to a treatment with 15 μM of RVX-208 during the development of the experiments.

Regarding `COc1cc(OC)c2c(=O)[nH]c(-c3cc(C)c(OCCO)c(C)c3)nc2c1` [RVX-208, 2-(4-(2-hydroxyethoxy)-3,5-dimethylphenyl)-5,7-dimethoxyquinazolin-4(3H)-one], the ABCA1 expression levels entry in assay [1] is “reduces ABCA1 expression levels”. Also, the “apolipoprotein A1 expression levels” value in assay [2] was “increase in apolipoprotein A1 expression levels”. Further, the cholesterol flux entry in assay [3] (cells overexpressing ABCA1) and in assay [3] (control cells) was “decreases significantly” in each case. Moreover, in assay [4], the migratory capacity entry was “significant decreases the migratory and invasive capacity”.
